Patent US11921308B2, “Polarizer and image display device” (FUJIFILM Corporation, priority 2018, dated 2024)

Key:
[1] = compatibility between liquid crystal compound and dichroic material (phase separation observed on hot stage under polarizing microscope); assay type: physicochemical; parameters: key: Compatible: in a case where phase separation is not observed, it is defined as “compatible”; Incompatible: in a case where phase separation is observed, it is defined as “incompatible”; settings: for Second dichroic material Compatible or incompatible: with the liquid crystal compound of the same composition (same example); for First dichroic material Compatible or incompatible: with the liquid crystal compound of the same composition
Description: Here, the compatibility between the liquid crystal compound and the dichroic material can be confirmed by the following method.
First, two polarizers of an optical microscope (ECLIPSE E600 POL, manufactured by Nikon Corporation) are arranged so as to be orthogonal to each other, and a sample stand is set between the two polarizers.
Next, a sample composition obtained by mixing the liquid crystal compound contained in the polarizer-forming composition and a certain kind of dichroic material at a mass ratio is cast on glass, and this glass is set on a hot stage placed on the sample stand.
Next, the phase separation state of the sample is observed by raising or lowering the temperature of the hot stage in a range of higher than or equal to a higher temperature between the melting point of the liquid crystal compound and the melting point of the dichroic material and lower than or equal to a lower temperature between the isotropic phase transition temperature of the liquid crystal compound and the isotropic phase transition temperature of the dichroic material.
In this operation, in a case where phase separation is not observed, it is defined as “compatible”. Further, in a case where phase separation is observed, it is defined as “incompatible”.
Further, the compatibility between the liquid crystal compound and the first dichroic material or the second dichroic material in the polarizer-forming composition was confirmed by the method described above, and the results thereof are listed in Table 1.

[2] = maximum absorption wavelength of the dichroic material from ultraviolet visible spectrum in solution; assay type: physicochemical; settings: solution in a good solvent, 380 to 800 nm
Description: Here, the maximum absorption wavelength (nm) of the dichroic material is acquired from an ultraviolet visible spectrum in a wavelength range of 380 to 800 nm measured by a spectrophotometer using a solution prepared by dissolving the dichroic material in a good solvent.

[3] = first listed first dichroic material
[4] = second listed first dichroic material

Structure (SMILES) | Second dichroic material Compatible or incompatible [1] | maximum absorption wavelength [2] [nm] | First dichroic material Compatible or incompatible [1, 3] | First dichroic material Compatible or incompatible [1, 4]
C=CC(=O)OCCCCCCCCCOc1ccc(N=Nc2cc3sc(N=Nc4ccc(N(CC)CCOC(=O)C=C)cc4)nc3s2)cc1 [Example C1] | Incompatible | 592 | – | –
C=CC(=O)OCCN(CC)c1ccc(N=Nc2nc3sc(N=Nc4ccc(OCCCCCCOC(C)=O)cc4)cc3s2)cc1 [Example C5] | – | 592 | Compatible | Compatible
C=CC(=O)OCCCCCCCCCOc1ccc(N=Nc2cc3sc(N=Nc4ccc(N(CC)CCOC(=O)C=C)cc4C)nc3s2)cc1 [Example C3] | Incompatible | 605 | – | –
C=CC(=O)OCCN(CC)c1ccc(N=Nc2nc3sc(N=Nc4ccc(OCCCCCCCCCOC(=O)CC)cc4)cc3s2)cc1 [Example C4] | Incompatible | 592 | – | –
CCCCc1ccc(N=Nc2ccc(N=Nc3ccc(N(CC)CCC#N)cc3)cc2)cc1 [Example M2] | – | 457 | – | Compatible
C=CC(=O)OCCCCCCCCCCOc1ccc(N=Nc2cc3sc(N=Nc4ccc(N(CC)CCOC(=O)C=C)cc4)nc3s2)cc1 [Example C2] | Incompatible | 592 | – | –
C=CC(=O)CCCN(CC)c1ccc(N=Nc2ccc(N=Nc3ccc(CCCC)cc3)cc2)cc1 [Example M3] | – | 442 | – | Compatible
FC(F)(F)c1ccc(N=Nc2ccc(N=Nc3ccc(N4CCCC4)cc3)cc2)cc1 [Example M1] | – | 502 | – | Compatible

Now from value to molecule:

Second dichroic material Compatible or incompatible [1] | maximum absorption wavelength [2] [nm] | First dichroic material Compatible or incompatible [1, 3] | First dichroic material Compatible or incompatible [1, 4] | Structure (SMILES)
Incompatible | 443 | – | – | C=CC(=O)OCCCCCCCCCCCOc1ccc(N=Nc2cc3sc(NC(=O)c4ccc(CCCC)cc4)nc3s2)cc1 [Example Y7]
– | 413 | Compatible | – | C=CC(=O)OCCCCCOc1ccc(N=Nc2ccc(N=Nc3ccc(N=Nc4ccc(OCCCCCOC(=O)C=C)cc4)cc3C)cc2)cc1 [Example Y3]
Incompatible | 445 | – | – | C=CC(=O)OCCCCCCCCCCCCOc1ccc(N=Nc2ccc(N=Nc3ccc(N=Nc4ccc(OCCCCCCCCCCCCOC(=O)C=C)cc4O)cc3)c(C)c2)cc1 [Example Y4]
– | 413 | Compatible | – | C=CC(=O)OCCCCCCOc1ccc(N=Nc2ccc(N=Nc3ccc(N=Nc4ccc(OCCCCCCOC(=O)C=C)cc4)cc3C)cc2)cc1 [Example Y5]
– | 430 | Compatible | – | C=CC(=O)CC(C)OC(=O)CCC(=O)OCCc1ccc(N=Nc2cc3sc(NC(=O)c4ccc(CCCC)cc4)nc3s2)cc1 (stereo not drawn) [Example Y8]
– | 413 | Compatible | – | C=CC(=O)OCCCCCCCCOc1ccc(N=Nc2ccc(N=Nc3ccc(N=Nc4ccc(OCCCCCCCCOC(=O)C=C)cc4)cc3C)cc2)cc1 [Example Y6]
– | 413 | Compatible | – | C=CC(=O)OCCCCOc1ccc(N=Nc2ccc(N=Nc3ccc(N=Nc4ccc(OCCCCOC(=O)C=C)cc4)cc3C)cc2)cc1 [Example Y1]
– | 445 | Compatible | – | C=CC(=O)OCCCCOc1ccc(N=Nc2ccc(N=Nc3ccc(N=Nc4ccc(OCCCCOC(=O)C=C)cc4O)cc3)c(C)c2)cc1 [Example Y2]
